Test results from PubChem BioAssay (NCI).
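Interpolation was linear, between the two tested concentrations surrounding the appropriate level; five concentrations were tested over 48 hours in 96-well plates. Abbreviation: GI50, concentration required for 50% inhibition of growth. At the TGI there is no net growth.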

Assays:
Experiment in all cases: NCI-60 cell line screen, 48 h
HOP-92 NSCLC = tested on: HOP-92 NSCLC
MCF7 breast = tested on: MCF7 breast
HCT-116 colon = tested on: HCT-116 colon
SNB-19 CNS = tested on: SNB-19 CNS
SW-620 colon = tested on: SW-620 colon
UACC-257 melanoma = tested on: UACC-257 melanoma
OVCAR-4 ovarian = tested on: OVCAR-4 ovarian
UACC-62 melanoma = tested on: UACC-62 melanoma
HOP-62 NSCLC = tested on: HOP-62 NSCLC
SK-MEL-2 melanoma = tested on: SK-MEL-2 melanoma

Row | SMILES | TGI (HOP-92 NSCLC) [µM] | TGI (MCF7 breast) [µM] | TGI (HCT-116 colon) [µM] | TGI (SNB-19 CNS) [µM] | TGI (SW-620 colon) [µM] | TGI (UACC-257 melanoma) [µM] | TGI (OVCAR-4 ovarian) [µM] | TGI (UACC-62 melanoma) [µM] | TGI (HOP-62 NSCLC) [µM] | TGI (SK-MEL-2 melanoma) [µM] | GI50 (HOP-92 NSCLC) [µM] | GI50 (UACC-62 melanoma) [µM] | GI50 (MCF7 breast) [µM] | GI50 (HCT-116 colon) [µM] | GI50 (SNB-19 CNS) [µM] | GI50 (HOP-62 NSCLC) [µM] | GI50 (SW-620 colon) [µM] | GI50 (UACC-257 melanoma) [µM] | GI50 (SK-MEL-2 melanoma) [µM] | GI50 (OVCAR-4 ovarian) [µM]
1 | Cc1ccc(S(=O)(=O)NCCCSCCN)cc1 | > 100 | > 100 | > 100 | > 100 | > 100 | > 100 | > 100 |  |  |  |  |  |  |  |  |  |  |  |  | 
2 | O=C(Nc1ccc(C(F)(F)F)cc1[N+](=O)[O-])C(=O)Nn1c(=S)[nH]c2ccccc2c1=O | > 100 |  | > 100 | > 100 | > 100 | > 100 | > 100 | > 100 | > 100 | > 100 |  |  |  |  |  |  |  |  |  | 
3 | CC(C)N(CCNc1nc(C(Cl)(Cl)Cl)nc2cc(Cl)ccc12)C(C)C | 3.17 | 3.05 | 2.66 | 4.78 | 3.09 | 3.49 | 2.96 | 3.22 | 3.12 | 3.63 | 1.01 | 1.72 | 1.54 | 1.31 | 1.9 | 1.6 | 1.48 | 1.93 | 1.76 | 1.35
4 | OCC1NC(CO)C(O)C1O (centres undefined) | > 100 | > 100 | > 100 | > 100 | > 100 | > 100 | > 100 | > 100 | > 100 | > 100 |  |  |  |  |  |  |  |  |  | 
5 | O=S1(=O)C[C@H](NCc2ccccc2)[C@H](NCc2ccccc2)C1 | > 100 | > 100 | > 100 | > 100 | > 100 | > 100 | > 100 | > 100 | > 100 | > 100 |  |  |  |  |  |  |  |  |  | 
6 | COc1ccc(CCn2ccc(C)n2)c(OC)c1 |  | > 100 | > 100 | > 100 | > 100 | > 100 | > 100 | > 100 | > 100 |  |  |  |  |  |  |  |  |  |  | 
7 | CC=C/C=C/[C@@H]1O[C@](O)([C@H](CC)C(=O)NC/C=C/C=C(\C)[C@@H](OC)[C@@H](C)[C@@H]2O[C@H](/C=C/C=C/C=C(\C)C(=O)c3c(O)cc[nH]c3=O)[C@H](O)[C@@H]2O)[C@H](O)[C@H](O)C1(C)C | > 100 | > 100 |  | > 100 | > 100 | > 100 | > 100 | > 100 | > 100 | > 100 |  |  |  |  |  |  |  |  |  | 
8 | CC(=O)OC/C=C\Cn1ncc(=O)[nH]c1=O | 30.6 | 45.1 |  | > 100 | 40.5 |  |  |  | 43.9 | 40.2 |  |  |  |  |  |  |  |  |  | 
9 | Fc1ccc(C2CC(c3cccc(Nc4ccncc4)c3)=NN2c2ccccc2)cc1 (centres undefined) | 2.73 | 3.48 | 3.12 | 3.04 | 3.21 | 4.31 | 3.07 | 3.24 |  |  | 1.33 | 1.76 | 1.74 | 1.49 | 1.61 |  | 1.69 | 2.09 |  | 1.61
10 | CCOP(=O)(OCC)C(Cc1c[nH]c2ccccc12)C(=O)O (centres undefined) | > 100 | > 100 | > 100 | > 100 | > 100 | > 100 | > 100 |  | > 100 | > 100 |  |  |  |  |  |  |  |  |  | 
